In the kinase profiling compilation of Christmann-Franck et al. (2016):
Several values for one entry are separate records, joined by “and”; a condition that tells them apart may be missing. Identical values can stand only once. One block for each molecule: values may come before it.

Legend:
Assay in all cases: radiometric filter-binding kinase assay, Kinase HotSpot
Details in all cases: compound 0.5 µM; ATP 10 µM
TEK (human) = TEK (human) (UniProt Q02763)
TNK2 (human) = TNK2 (human) (UniProt Q07912)
MAP3K3 (human) = MAP3K3 (human) (UniProt Q99759)
MAP3K14 (human) = MAP3K14 (human) (UniProt Q99558)
IGF1R (human) = IGF1R (human) (UniProt P08069)
MAP4K5 (human) = MAP4K5 (human) (UniProt Q9Y4K4)
EPHB2 (human) = EPHB2 (human) (UniProt P29323)
HCK (human) = HCK (human) (UniProt P08631)
PLK2 (human) = PLK2 (human) (UniProt Q9NYY3)
PRKCA (human) = PRKCA (human) (UniProt P17252)
SRPK1 (human) = SRPK1 (human) (UniProt Q96SB4)
MARK4 (human) = MARK4 (human) (UniProt Q96L34)
AURKB (human) = AURKB (human) (UniProt Q96GD4)
ACVRL1 (human) = ACVRL1 (human) (UniProt P37023)
EGFR (human) = EGFR (human) (UniProt P00533)
PIM2 (human) = PIM2 (human) (UniProt Q9P1W9)
[1] = target: JAK1 JH1 catalytic (human) (UniProt P23458)
CAMK1D (human) = CAMK1D (human) (UniProt Q8IU85)
TYRO3 (human) = TYRO3 (human) (UniProt Q06418)
MAP4K2 (human) = MAP4K2 (human) (UniProt Q12851)
LYN (human) = LYN (human) (UniProt P07948)
RPS6KB2 (human) = RPS6KB2 (human) (UniProt Q9UBS0)
WNK3 (human) = WNK3 (human) (UniProt Q9BYP7)
MAP3K9 (human) = MAP3K9 (human) (UniProt P80192)
PRKG1 (human) = PRKG1 (human) (UniProt Q13976)
MAPKAPK3 (human) = MAPKAPK3 (human) (UniProt Q16644)
PKN2 (human) = PKN2 (human) (UniProt Q16513)
STK4 (human) = STK4 (human) (UniProt Q13043)
ABL1 (human) = ABL1 (human) (UniProt P00519)
CSNK1G3 (human) = CSNK1G3 (human) (UniProt Q9Y6M4)
MAP3K11 (human) = MAP3K11 (human) (UniProt Q16584)
EPHA5 (human) = EPHA5 (human) (UniProt P54756)
CLK3 (human) = CLK3 (human) (UniProt P49761)
CDK6 CCND3 (human) = CDK6 CCND3 (human) (UniProt P30281+Q00534)
PDGFRA (human) = PDGFRA (human) (UniProt P16234)
PRKD1 (human) = PRKD1 (human) (UniProt Q15139)
PRKCB2 (human) = PRKCB2 (human) (UniProt P05771)
MAP3K10 (human) = MAP3K10 (human) (UniProt Q02779)
STK39 (human) = STK39 (human) (UniProt Q9UEW8)
SLK (human) = SLK (human) (UniProt Q9H2G2)
CDK5 CDK5R1 p35 (human) = CDK5 CDK5R1 p35 (human) (UniProt Q00535+Q15078)
RPS6KA4 KD2 (human) = RPS6KA4 KD2 (human) (UniProt O75676)

Sequence of MAP4K5 (human) (Q9Y4K4 whole entry, looked up): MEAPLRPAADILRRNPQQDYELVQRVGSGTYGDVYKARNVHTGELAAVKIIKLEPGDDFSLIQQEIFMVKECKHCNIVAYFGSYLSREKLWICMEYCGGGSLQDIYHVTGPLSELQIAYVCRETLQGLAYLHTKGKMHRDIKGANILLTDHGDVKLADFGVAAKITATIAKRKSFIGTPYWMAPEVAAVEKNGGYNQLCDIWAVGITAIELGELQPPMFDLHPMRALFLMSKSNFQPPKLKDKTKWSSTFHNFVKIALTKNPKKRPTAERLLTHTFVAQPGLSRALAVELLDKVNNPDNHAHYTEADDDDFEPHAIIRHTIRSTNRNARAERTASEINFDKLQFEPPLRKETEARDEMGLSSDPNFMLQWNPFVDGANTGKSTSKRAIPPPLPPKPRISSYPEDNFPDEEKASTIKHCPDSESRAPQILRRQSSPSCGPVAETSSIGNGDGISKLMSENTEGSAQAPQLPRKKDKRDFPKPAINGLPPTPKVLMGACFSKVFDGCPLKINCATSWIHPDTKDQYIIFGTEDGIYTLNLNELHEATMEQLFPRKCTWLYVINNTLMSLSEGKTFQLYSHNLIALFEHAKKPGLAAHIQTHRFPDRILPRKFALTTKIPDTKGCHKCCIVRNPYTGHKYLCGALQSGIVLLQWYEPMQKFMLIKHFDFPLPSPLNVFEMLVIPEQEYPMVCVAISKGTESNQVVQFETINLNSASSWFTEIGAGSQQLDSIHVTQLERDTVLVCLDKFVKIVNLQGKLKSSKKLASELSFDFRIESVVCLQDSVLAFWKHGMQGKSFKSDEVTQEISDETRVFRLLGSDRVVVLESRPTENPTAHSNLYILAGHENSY
Sequence of TNK2 (human) (Q07912 whole entry, looked up): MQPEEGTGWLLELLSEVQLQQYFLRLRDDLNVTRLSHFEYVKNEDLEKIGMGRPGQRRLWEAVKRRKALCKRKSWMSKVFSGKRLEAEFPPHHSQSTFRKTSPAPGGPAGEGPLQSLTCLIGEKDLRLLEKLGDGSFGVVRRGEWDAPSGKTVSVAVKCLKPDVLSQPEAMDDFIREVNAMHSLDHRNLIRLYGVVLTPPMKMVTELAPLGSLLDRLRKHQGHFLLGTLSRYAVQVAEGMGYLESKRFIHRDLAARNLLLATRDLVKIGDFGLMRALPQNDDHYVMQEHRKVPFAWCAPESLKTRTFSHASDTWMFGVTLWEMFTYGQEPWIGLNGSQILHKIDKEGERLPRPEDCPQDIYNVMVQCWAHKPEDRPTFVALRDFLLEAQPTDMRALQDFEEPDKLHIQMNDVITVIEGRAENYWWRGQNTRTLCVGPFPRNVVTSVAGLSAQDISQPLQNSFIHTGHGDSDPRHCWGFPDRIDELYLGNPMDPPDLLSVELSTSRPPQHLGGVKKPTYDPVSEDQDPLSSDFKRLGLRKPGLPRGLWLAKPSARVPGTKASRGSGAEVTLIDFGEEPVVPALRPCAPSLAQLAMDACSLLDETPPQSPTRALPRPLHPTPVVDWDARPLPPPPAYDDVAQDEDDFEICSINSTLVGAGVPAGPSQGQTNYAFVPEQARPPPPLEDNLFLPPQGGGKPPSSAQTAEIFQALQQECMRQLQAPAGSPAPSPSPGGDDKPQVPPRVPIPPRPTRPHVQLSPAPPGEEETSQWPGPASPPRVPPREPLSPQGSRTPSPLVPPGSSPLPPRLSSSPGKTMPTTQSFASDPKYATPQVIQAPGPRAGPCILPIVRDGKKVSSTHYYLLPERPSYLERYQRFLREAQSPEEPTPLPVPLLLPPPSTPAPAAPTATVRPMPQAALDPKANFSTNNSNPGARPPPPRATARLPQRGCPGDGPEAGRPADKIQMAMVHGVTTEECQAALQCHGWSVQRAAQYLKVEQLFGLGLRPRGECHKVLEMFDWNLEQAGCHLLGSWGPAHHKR
Sequence of MAP3K9 (human) (P80192 whole entry, looked up): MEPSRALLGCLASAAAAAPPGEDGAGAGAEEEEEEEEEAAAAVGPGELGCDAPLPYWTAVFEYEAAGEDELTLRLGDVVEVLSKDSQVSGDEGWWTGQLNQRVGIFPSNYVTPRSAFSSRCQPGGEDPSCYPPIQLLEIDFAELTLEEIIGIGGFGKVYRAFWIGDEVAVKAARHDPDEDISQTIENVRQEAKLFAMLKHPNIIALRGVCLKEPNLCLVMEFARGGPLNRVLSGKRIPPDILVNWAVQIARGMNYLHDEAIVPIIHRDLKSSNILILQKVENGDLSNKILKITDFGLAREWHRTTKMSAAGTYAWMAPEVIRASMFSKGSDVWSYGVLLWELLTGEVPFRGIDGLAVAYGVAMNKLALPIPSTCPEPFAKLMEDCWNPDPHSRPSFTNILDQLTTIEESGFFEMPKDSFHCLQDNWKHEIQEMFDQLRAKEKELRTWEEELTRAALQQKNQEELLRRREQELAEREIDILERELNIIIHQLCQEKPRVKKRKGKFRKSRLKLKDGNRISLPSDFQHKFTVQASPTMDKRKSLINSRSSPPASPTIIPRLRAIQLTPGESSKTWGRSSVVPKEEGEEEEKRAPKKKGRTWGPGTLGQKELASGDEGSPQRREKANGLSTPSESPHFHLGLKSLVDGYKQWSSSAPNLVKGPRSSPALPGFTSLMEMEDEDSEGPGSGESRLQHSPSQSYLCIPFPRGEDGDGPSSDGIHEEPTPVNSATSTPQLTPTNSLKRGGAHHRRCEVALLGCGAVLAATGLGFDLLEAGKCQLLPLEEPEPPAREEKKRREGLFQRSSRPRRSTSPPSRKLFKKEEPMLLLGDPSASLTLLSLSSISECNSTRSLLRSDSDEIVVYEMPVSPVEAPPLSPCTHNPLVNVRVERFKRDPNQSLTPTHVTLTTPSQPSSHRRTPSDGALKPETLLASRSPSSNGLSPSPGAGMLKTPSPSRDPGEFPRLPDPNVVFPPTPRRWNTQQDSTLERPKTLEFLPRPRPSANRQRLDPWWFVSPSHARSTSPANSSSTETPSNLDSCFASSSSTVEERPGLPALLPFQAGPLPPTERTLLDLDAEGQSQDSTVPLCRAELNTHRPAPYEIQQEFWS
Sequence of PIM2 (human) (Q9P1W9 whole entry, looked up): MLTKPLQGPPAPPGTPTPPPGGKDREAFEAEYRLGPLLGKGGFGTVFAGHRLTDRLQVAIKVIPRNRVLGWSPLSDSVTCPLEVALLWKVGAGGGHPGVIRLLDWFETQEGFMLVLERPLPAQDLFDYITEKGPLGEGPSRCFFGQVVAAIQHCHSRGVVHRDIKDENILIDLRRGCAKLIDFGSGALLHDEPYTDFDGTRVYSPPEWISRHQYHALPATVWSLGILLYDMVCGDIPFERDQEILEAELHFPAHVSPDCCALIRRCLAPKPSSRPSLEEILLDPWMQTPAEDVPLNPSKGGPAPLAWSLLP
Sequence of PDGFRA (human) (P16234 whole entry, looked up): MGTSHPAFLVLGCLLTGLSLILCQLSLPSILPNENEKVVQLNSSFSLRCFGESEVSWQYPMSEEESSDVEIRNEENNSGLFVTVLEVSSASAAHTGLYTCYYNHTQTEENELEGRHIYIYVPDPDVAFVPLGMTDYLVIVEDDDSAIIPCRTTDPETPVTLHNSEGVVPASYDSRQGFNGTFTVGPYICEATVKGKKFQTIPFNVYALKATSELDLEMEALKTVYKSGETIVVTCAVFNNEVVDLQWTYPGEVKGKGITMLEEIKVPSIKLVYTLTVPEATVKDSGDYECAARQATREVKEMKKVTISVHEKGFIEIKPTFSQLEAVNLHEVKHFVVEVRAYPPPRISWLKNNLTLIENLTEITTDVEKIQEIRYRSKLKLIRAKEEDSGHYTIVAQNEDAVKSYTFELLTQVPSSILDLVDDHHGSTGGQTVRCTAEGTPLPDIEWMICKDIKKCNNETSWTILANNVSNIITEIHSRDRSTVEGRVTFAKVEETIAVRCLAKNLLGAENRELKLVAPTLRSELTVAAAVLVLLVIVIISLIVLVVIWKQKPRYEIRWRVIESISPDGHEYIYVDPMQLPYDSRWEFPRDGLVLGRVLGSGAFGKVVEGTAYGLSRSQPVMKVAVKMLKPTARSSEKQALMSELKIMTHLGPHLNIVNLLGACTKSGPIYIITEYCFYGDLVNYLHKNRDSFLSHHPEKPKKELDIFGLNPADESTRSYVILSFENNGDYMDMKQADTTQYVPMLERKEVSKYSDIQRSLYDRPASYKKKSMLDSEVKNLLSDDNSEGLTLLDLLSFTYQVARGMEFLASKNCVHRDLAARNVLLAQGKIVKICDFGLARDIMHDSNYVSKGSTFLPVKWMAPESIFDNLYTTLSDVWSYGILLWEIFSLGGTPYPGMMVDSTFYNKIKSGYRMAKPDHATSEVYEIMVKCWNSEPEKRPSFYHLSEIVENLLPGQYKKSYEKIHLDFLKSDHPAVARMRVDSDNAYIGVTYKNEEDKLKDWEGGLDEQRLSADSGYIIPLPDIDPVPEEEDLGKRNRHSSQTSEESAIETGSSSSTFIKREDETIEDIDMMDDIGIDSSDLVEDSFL
Sequence of PRKG1 (human) (Q13976 whole entry, looked up): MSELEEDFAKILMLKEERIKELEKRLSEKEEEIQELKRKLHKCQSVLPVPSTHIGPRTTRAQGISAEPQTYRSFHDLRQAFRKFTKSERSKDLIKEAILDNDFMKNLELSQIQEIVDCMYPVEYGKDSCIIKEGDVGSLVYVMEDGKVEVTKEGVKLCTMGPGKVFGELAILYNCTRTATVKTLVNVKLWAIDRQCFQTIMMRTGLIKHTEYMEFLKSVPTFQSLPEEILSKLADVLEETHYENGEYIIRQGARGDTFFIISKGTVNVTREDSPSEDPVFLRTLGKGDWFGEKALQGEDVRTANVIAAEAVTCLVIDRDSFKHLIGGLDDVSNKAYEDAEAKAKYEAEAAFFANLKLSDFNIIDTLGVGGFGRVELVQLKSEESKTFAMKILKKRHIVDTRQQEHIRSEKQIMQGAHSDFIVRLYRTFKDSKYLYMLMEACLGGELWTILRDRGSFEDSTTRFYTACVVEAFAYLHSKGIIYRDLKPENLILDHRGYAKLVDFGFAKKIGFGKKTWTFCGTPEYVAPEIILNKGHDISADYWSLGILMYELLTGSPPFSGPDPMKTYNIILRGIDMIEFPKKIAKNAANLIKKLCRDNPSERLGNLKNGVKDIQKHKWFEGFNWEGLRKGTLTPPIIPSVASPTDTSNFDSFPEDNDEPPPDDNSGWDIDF

Structure (SMILES): Cc1nc2cc3nc(-c4cccs4)cnc3cc2n1C
residual activity (TEK (human)): 96.6% | residual activity (TNK2 (human)): 100% | residual activity (MAP3K3 (human)): 117% | residual activity (MAP3K14 (human)): 97.4% | residual activity (IGF1R (human)): 96.4% | residual activity (MAP4K5 (human)): 94.8% | residual activity (EPHB2 (human)): 101% | residual activity (HCK (human)): 98% | residual activity (PLK2 (human)): 99.4% | residual activity (PRKCA (human)): 74.7% | residual activity (SRPK1 (human)): 107% | residual activity (MARK4 (human)): 105% | residual activity (AURKB (human)): 84.9% | residual activity (ACVRL1 (human)): 109% | residual activity (EGFR (human)): 104% | residual activity (PIM2 (human)): 114% | residual activity [1]: 105% | residual activity (CAMK1D (human)): 107% | residual activity (TYRO3 (human)): 103% | residual activity (MAP4K2 (human)): 110% | residual activity (LYN (human)): 117% and 97.8% | residual activity (RPS6KB2 (human)): 98% | residual activity (WNK3 (human)): 96.9% | residual activity (MAP3K9 (human)): 90.3% | residual activity (PRKG1 (human)): 98.5% and 99.7% | residual activity (MAPKAPK3 (human)): 102% | residual activity (PKN2 (human)): 71% | residual activity (STK4 (human)): 97.4% | residual activity (ABL1 (human)): 80.4% | residual activity (CSNK1G3 (human)): 96.1% | residual activity (MAP3K11 (human)): 91.1% | residual activity (EPHA5 (human)): 105% | residual activity (CLK3 (human)): 114% | residual activity (CDK6 CCND3 (human)): 87.8% | residual activity (PDGFRA (human)): 23.8% | residual activity (PRKD1 (human)): 97.7% | residual activity (PRKCB2 (human)): 121% | residual activity (MAP3K10 (human)): 101% | residual activity (STK39 (human)): 79.8% | residual activity (SLK (human)): 94.5% | residual activity (CDK5 CDK5R1 p35 (human)): 107% | residual activity (RPS6KA4 KD2 (human)): 88.4%

residual activity (TEK (human)): 98.7% | residual activity (TNK2 (human)): 40.6% | residual activity (MAP3K3 (human)): 94.4% | residual activity (MAP3K14 (human)): 88.7% | residual activity (IGF1R (human)): 80.2% | residual activity (MAP4K5 (human)): 37.8% | residual activity (EPHB2 (human)): 83.3% | residual activity (HCK (human)): 60.2% | residual activity (PLK2 (human)): 106% | residual activity (PRKCA (human)): 97.7% | residual activity (SRPK1 (human)): 89.3% | residual activity (MARK4 (human)): 56.2% | residual activity (AURKB (human)): 49.6% | residual activity (ACVRL1 (human)): 108% | residual activity (EGFR (human)): 97.1% | residual activity (PIM2 (human)): 106% | residual activity [1]: 63.4% | residual activity (CAMK1D (human)): 92.3% | residual activity (TYRO3 (human)): 79.6% | residual activity (MAP4K2 (human)): 57.3% | residual activity (LYN (human)): 64.6% and 79.6% | residual activity (RPS6KB2 (human)): 107% | residual activity (WNK3 (human)): 89.4% | residual activity (MAP3K9 (human)): 19.1% | residual activity (PRKG1 (human)): 86% and 90.1% | residual activity (MAPKAPK3 (human)): 103% | residual activity (PKN2 (human)): 97.8% | residual activity (STK4 (human)): 18.8% | residual activity (ABL1 (human)): 82.5% | residual activity (CSNK1G3 (human)): 81.9% | residual activity (MAP3K11 (human)): 17.3% | residual activity (EPHA5 (human)): 86.5% | residual activity (CLK3 (human)): 48.2% | residual activity (CDK6 CCND3 (human)): 26.1% | residual activity (PDGFRA (human)): 90.9% | residual activity (PRKD1 (human)): 85% | residual activity (PRKCB2 (human)): 101% | residual activity (MAP3K10 (human)): 95.2% | residual activity (STK39 (human)): 90.4% | residual activity (SLK (human)): 78.7% | residual activity (CDK5 CDK5R1 p35 (human)): 23.8% | residual activity (RPS6KA4 KD2 (human)): 58.7%
Structure (SMILES): O=C1Nc2ccccc2/C1=C1\Nc2ccccc2\C1=N/O

residual activity (TEK (human)): 101% | residual activity (TNK2 (human)): 4.93% | residual activity (MAP3K3 (human)): 87.8% | residual activity (MAP3K14 (human)): 89% | residual activity (IGF1R (human)): 39.1% | residual activity (MAP4K5 (human)): 15.5% | residual activity (EPHB2 (human)): 75% | residual activity (HCK (human)): 23% | residual activity (PLK2 (human)): 105% | residual activity (PRKCA (human)): 101% | residual activity (SRPK1 (human)): 71.3% | residual activity (MARK4 (human)): 43.5% | residual activity (AURKB (human)): 27.4% | residual activity (ACVRL1 (human)): 103% | residual activity (EGFR (human)): 88.1% | residual activity (PIM2 (human)): 99.5% | residual activity [1]: 25.9% | residual activity (CAMK1D (human)): 80.3% | residual activity (TYRO3 (human)): 71.5% | residual activity (MAP4K2 (human)): 51.7% | residual activity (LYN (human)): 25.4% and 45.5% | residual activity (RPS6KB2 (human)): 106% | residual activity (WNK3 (human)): 79.7% | residual activity (MAP3K9 (human)): 7.06% | residual activity (PRKG1 (human)): 45.1% and 53% | residual activity (MAPKAPK3 (human)): 98.9% | residual activity (PKN2 (human)): 90.1% | residual activity (STK4 (human)): 8.29% | residual activity (ABL1 (human)): 71.9% | residual activity (CSNK1G3 (human)): 90.7% | residual activity (MAP3K11 (human)): 10.5% | residual activity (EPHA5 (human)): 68% | residual activity (CLK3 (human)): 16.1% | residual activity (CDK6 CCND3 (human)): 10.2% | residual activity (PDGFRA (human)): 76.7% | residual activity (PRKD1 (human)): 72.7% | residual activity (PRKCB2 (human)): 88% | residual activity (MAP3K10 (human)): 86.9% | residual activity (STK39 (human)): 79.3% | residual activity (SLK (human)): 59.9% | residual activity (CDK5 CDK5R1 p35 (human)): 14.3% | residual activity (RPS6KA4 KD2 (human)): 21.7%
Structure (SMILES): O=C1Nc2ccccc2/C1=C1/Nc2ccccc2/C1=N\OCCC(O)CO (stereo not drawn)

Structure (SMILES): Nc1nccc(-c2c(-c3ccc(F)cc3)ncn2C2CCNCC2)n1
residual activity (TEK (human)): 101% | residual activity (TNK2 (human)): 98% | residual activity (MAP3K3 (human)): 101% | residual activity (MAP3K14 (human)): 107% | residual activity (IGF1R (human)): 104% | residual activity (MAP4K5 (human)): 68.1% | residual activity (EPHB2 (human)): 103% | residual activity (HCK (human)): 95.5% | residual activity (PLK2 (human)): 93% | residual activity (PRKCA (human)): 89.1% | residual activity (SRPK1 (human)): 103% | residual activity (MARK4 (human)): 97.4% | residual activity (AURKB (human)): 103% | residual activity (ACVRL1 (human)): 95.6% | residual activity (EGFR (human)): 94.4% | residual activity (PIM2 (human)): 100% | residual activity [1]: 104% | residual activity (CAMK1D (human)): 103% | residual activity (TYRO3 (human)): 96.9% | residual activity (MAP4K2 (human)): 102% | residual activity (LYN (human)): 87.5% and 97.5% | residual activity (RPS6KB2 (human)): 90.9% | residual activity (WNK3 (human)): 95.3% | residual activity (MAP3K9 (human)): 94.5% | residual activity (PRKG1 (human)): 88.2% and 97.7% | residual activity (MAPKAPK3 (human)): 99.4% | residual activity (PKN2 (human)): 97.1% | residual activity (STK4 (human)): 103% | residual activity (ABL1 (human)): 101% | residual activity (CSNK1G3 (human)): 83.9% | residual activity (MAP3K11 (human)): 96.3% | residual activity (EPHA5 (human)): 97.8% | residual activity (CLK3 (human)): 102% | residual activity (CDK6 CCND3 (human)): 95.5% | residual activity (PDGFRA (human)): 95.8% | residual activity (PRKD1 (human)): 54.6% | residual activity (PRKCB2 (human)): 79.4% | residual activity (MAP3K10 (human)): 99.8% | residual activity (STK39 (human)): 93.5% | residual activity (SLK (human)): 99.9% | residual activity (CDK5 CDK5R1 p35 (human)): 102% | residual activity (RPS6KA4 KD2 (human)): 98.7%
